{"source": "paper PMC2397535", "about": "(Breast Cancer Research : BCR, 2008)", "key": {"MAXF 574": {"system": "MAXF 574", "assay": "clonogenic (soft agar colony formation) assay, primary breast tumor", "assay_type": "cell-based, human"}, "[1]": {"assay": "pharmacokinetics and biodistribution in BT-474 tumor-bearing mice (HPLC/MS-MS)", "assay_type": "in vivo", "settings": "for Kp: intravenous; for Kp / half-life: 30 mg/kg", "description": "At various time points, mice (n = 4) were sacrificed and blood and tissues (tumor, liver, lung, heart, and muscles) were dissected. […] Frozen tissues were minced, then homogenized in an equal volume of ice-cold phosphate-buffered saline (Sigma P4417; Sigma-Aldrich) using a Polytron homogenizer (TP18-10; IKA, Staufen, Germany) and keeping the material cold during the homogenization. After the addition of 50 μL of internal standard (1 μg/mL) to analytical aliquots (25 to 250 μL) of plasma or tissue homogenate, the proteins were precipitated by the addition of an equal volume of acetonitrile and processed further for chromatographic separation. […] An aliquot (5 μL) of this solution was separated on a […] Ultra Cyano reverse-phase HPLC column (column size 50 × 1 mm, particle size 3 μm, preceded by a guard column: PhenomenexTM AJO-4304 Phenylpropyl, size 4 × 2 mm (Phenomenex, Torrance, CA, USA)) with a mobile phase consisting of a mixture of 0.2% formic acid in water (solvent A) and 0.2% formic acid in acetonitrile (solvent B). The column eluent was introduced directly into the ion source of the triple-quadrupole mass spectrometer Quattro UltimaTM (Micromass Limited, now part of Waters Corporation, Milford, MA, USA) controlled by MasslynxTM 4.0 software. Positive electrospray ionization multiple-reaction monitoring was used for the MS/MS detection of the analyte. Precursors to product ion transitions of m/z 466.[…]/z 308.20 for NVP-AUY922-NX and m/z 480.[…]/z 308.15 for IS VER814 were used. […] Regression analysis and further calculations were performed using QuanLynxTM 4.0 (Waters Corporation, Milford, MA, USA) and ExcelTM 2002 (Microsoft Corporation, Redmond, WA, USA). Concentrations of unknown samples were calculated from the peak area ratio of the product ion of the analytes to the product ion of its internal standard (ordinate) against the nominal concentration (abscissa). Assay linearity was indicated by an overall regression coefficient of 0.9975."}, "HSP90α": {"system": "HSP90α", "settings": "read-out: IC50 (median inhibition concentration); cited from earlier work"}, "BT20": {"system": "BT20", "assay": "antiproliferative effect (GI50), breast cancer cell line", "assay_type": "cell-based", "settings": "Homo sapiens, BT-20"}, "[2]": {"settings": "48 hours after compound administration"}}, "note": "Where two headings read alike, the source gives them in different places."}
{"smiles": "CCNC(=O)c1noc(-c2cc(C(C)C)c(O)cc2O)c1-c1ccc(CN2CCOCC2)cc1", "note": "[NVP-AUY922]", "values": [{"measurement": "IC70 (colony formation)", "setting": "MAXF 574", "result": ">10,000 nM"}, {"measurement": "IC50", "setting": "MAXF 574; Homo sapiens", "result": "> 10000", "unit": "nM"}, {"measurement": "plasma concentrations", "setting": "[1]; [2]", "result": "[…]"}, {"measurement": "tumor concentration", "setting": "[1]; [2]", "result": 2.22, "unit": "nmol/g"}, {"measurement": "Kp", "setting": "[1]; female, athymic, mouse, heart, read-out: tissue exposure over 48 hours relative to plasma", "result": 5}, {"measurement": "half-life", "setting": "[1]; female, athymic, mouse, heart, iv, heart, 30 mg/kg single i.v., read-out: T 1/2 elimination λ_z (converted)", "result": 5.6, "unit": "h"}, {"measurement": "AUC(0-t)", "setting": "[1]; female, athymic, mouse, iv, plasma, 30 mg/kg single i.v., read-out: AUC(0-8)", "result": 7.3, "unit": "µM·h"}, {"measurement": "Cmax", "setting": "[1]; female, athymic, mouse, iv, plasma, 30 mg/kg single i.v., read-out: Cmax", "result": "14.1 ± 4.14", "unit": "µM"}, {"measurement": "Kp", "setting": "[1]; female, athymic, mouse, liver, read-out: tissue exposure over 48 hours relative to plasma", "result": 7}, {"measurement": "half-life", "setting": "[1]; female, athymic, mouse, liver, iv, liver, 30 mg/kg single i.v., read-out: T 1/2 elimination λ_z (converted)", "result": 7.7, "unit": "h"}, {"measurement": "half-life", "setting": "[1]; female, athymic, mouse, liver, lung, heart, muscle, iv, liver, lung, heart, muscle, read-out: terminal elimination half-life from non-tumor tissues", "result": "5.5 to 8", "unit": "h"}, {"measurement": "Kp", "setting": "[1]; female, athymic, mouse, lung, read-out: tissue exposure over 48 hours relative to plasma", "result": 10}, {"measurement": "half-life", "setting": "[1]; female, athymic, mouse, lung, iv, lung, 30 mg/kg single i.v., read-out: T 1/2 elimination λ_z (converted)", "result": 5.5, "unit": "h"}, {"measurement": "Kp", "setting": "[1]; female, athymic, mouse, muscle, read-out: tissue exposure over 48 hours relative to plasma", "result": 5}, {"measurement": "half-life", "setting": "[1]; female, athymic, mouse, muscle, iv, muscle, 30 mg/kg single i.v., read-out: T 1/2 elimination λ_z (converted)", "result": 8, "unit": "h"}, {"measurement": "half-life", "setting": "[1]; female, athymic, mouse, plasma, iv, based on the last three time points, read-out: apparent terminal elimination half-life in plasma (converted)", "result": 10, "unit": "h"}, {"measurement": "half-life", "setting": "[1]; female, athymic, mouse, plasma, iv, plasma, 30 mg/kg single i.v., read-out: T 1/2 elimination λ_z (converted)", "result": 10.3, "unit": "h"}, {"measurement": "Kp", "setting": "[1]; female, athymic, mouse, tumor, read-out: tumor exposure relative to plasma", "result": "~47"}, {"measurement": "half-life", "setting": "[1]; female, athymic, mouse, tumor, iv, tumor, 30 mg/kg single i.v., read-out: T 1/2 elimination λ_z (converted)", "result": 30, "unit": "h"}, {"measurement": "half-life", "setting": "[1]; female, athymic, mouse, tumor, iv, tumor, read-out: terminal half-life in tumor", "result": "25 to 30", "unit": "h"}, {"measurement": "AUC(0-8)", "setting": "[1]; heart, 30 mg/kg single i.v.", "result": 32, "unit": "nmol·h/g"}, {"measurement": "Cmax", "setting": "[1]; heart, 30 mg/kg single i.v.", "result": "36.86 ± 7.42", "unit": "nmol/g"}, {"measurement": "dose-normalized plasma exposure", "setting": "[1]; i.v. 20 mg/kg", "result": 0.28, "unit": "µmol·h/L"}, {"measurement": "dose-normalized plasma exposure", "setting": "[1]; i.v. 30 mg/kg", "result": 0.24, "unit": "µmol·h/L"}, {"measurement": "AUC(0-8)", "setting": "[1]; liver, 30 mg/kg single i.v.", "result": 53, "unit": "nmol·h/g"}, {"measurement": "Cmax", "setting": "[1]; liver, 30 mg/kg single i.v.", "result": "30.94 ± 5.58", "unit": "nmol/g"}, {"measurement": "AUC(0-8)", "setting": "[1]; lung, 30 mg/kg single i.v.", "result": 71, "unit": "nmol·h/g"}, {"measurement": "Cmax", "setting": "[1]; lung, 30 mg/kg single i.v.", "result": "48.48 ± 10.11", "unit": "nmol/g"}, {"measurement": "AUC(0-8)", "setting": "[1]; muscle, 30 mg/kg single i.v.", "result": 35, "unit": "nmol·h/g"}, {"measurement": "Cmax", "setting": "[1]; muscle, 30 mg/kg single i.v.", "result": "27.45 ± 6.64", "unit": "nmol/g"}, {"measurement": "Cmax (highest concentration)", "setting": "[1]; tumor", "result": 16.3, "unit": "nmol/g"}, {"measurement": "tumor drug level at 48 hours as share of Cmax", "setting": "[1]; tumor", "result": "approximately 13%"}, {"measurement": "AUC(0-8)", "setting": "[1]; tumor, 30 mg/kg single i.v.", "result": 345, "unit": "nmol·h/g"}, {"measurement": "Cmax", "setting": "[1]; tumor, 30 mg/kg single i.v.", "result": "16.36 ± 3.84", "unit": "nmol/g"}, {"measurement": "IC50", "setting": "HSP90α", "result": "[…]"}, {"measurement": "GI50", "setting": "BT20", "result": "4 ± 1.4", "unit": "nM"}]}
